# Results published in publication PMC7570888 (Molecules, 2020).
# Marks after values point to notes of the source that are not given here.
# Legend:
# MT1 = details: cited from earlier work
# MT2 = details: cited from earlier work
# human MT1 receptor [1] = target: T1, human MT1 receptor (Homo sapiens, UniProt P48039); experiment: 2-[125I]iodomelatonin competition binding, human MT1 in NIH3T3 cell membranes; details: 2-[125I]iodomelatonin 100 pM, 90 min 37 °C; Cheng-Prusoff; mean of at least three determinations in duplicate; read-out: hMT1 pKi (±SD) (converted)
# T1 construct: expressed in transfected cells; host or cells: NIH3T3 fibroblast cells, stably transfected; membranes used
# T1 sequence (P48039 whole entry): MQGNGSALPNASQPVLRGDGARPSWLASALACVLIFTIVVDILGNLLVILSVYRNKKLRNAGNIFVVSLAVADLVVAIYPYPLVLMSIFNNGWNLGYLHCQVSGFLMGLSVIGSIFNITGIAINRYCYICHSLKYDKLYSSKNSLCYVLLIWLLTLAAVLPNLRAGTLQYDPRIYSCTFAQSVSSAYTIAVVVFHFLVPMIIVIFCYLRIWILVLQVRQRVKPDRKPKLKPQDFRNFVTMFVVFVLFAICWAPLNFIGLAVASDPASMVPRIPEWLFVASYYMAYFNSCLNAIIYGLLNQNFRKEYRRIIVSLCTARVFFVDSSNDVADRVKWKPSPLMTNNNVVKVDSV
# Description: (§1) The newly synthesized alpha- and beta-methyl N-anilinoethylamides were evaluated for their binding affinity at human MT1 and MT2 receptors stably transfected in NIH3T3 cells using 2-[^125I]iodomelatonin as radiolabelled ligand.
# (§2) Binding affinities were determined using 2- [^125I]iodomelatonin as the labeled ligand in competition experiments on cloned human MT1 and MT2 receptors expressed in NIH3T3 […] fibroblast cells. The characterization of NIH3T3-MT1 and -MT2 cells had been already described in detail. Membranes were incubated for 90 min at 37 °C in binding buffer (Tris-HCl, 50 mM, pH 7.4). The final membrane concentration was 5−10 μg of protein per tube. The membrane protein level was determined in accordance with a previously reported method. […] The pKi values were calculated from the IC50 values in accordance with the Cheng−Prusoff equation [21]. The pKi values are the mean of at least three independent determinations performed in duplicate.
# human MT2 receptor [2] = target: T2, human MT2 receptor (Homo sapiens, UniProt P49286); experiment: 2-[125I]iodomelatonin competition binding, human MT2 in NIH3T3 cell membranes; details: 2-[125I]iodomelatonin 100 pM, 90 min 37 °C; Cheng-Prusoff; mean of at least three determinations in duplicate; read-out: hMT2 pKi (±SD) (converted)
# T2 construct: expressed in transfected cells; host or cells: NIH3T3 fibroblast cells, stably transfected; membranes used
# T2 sequence (P49286 1-362): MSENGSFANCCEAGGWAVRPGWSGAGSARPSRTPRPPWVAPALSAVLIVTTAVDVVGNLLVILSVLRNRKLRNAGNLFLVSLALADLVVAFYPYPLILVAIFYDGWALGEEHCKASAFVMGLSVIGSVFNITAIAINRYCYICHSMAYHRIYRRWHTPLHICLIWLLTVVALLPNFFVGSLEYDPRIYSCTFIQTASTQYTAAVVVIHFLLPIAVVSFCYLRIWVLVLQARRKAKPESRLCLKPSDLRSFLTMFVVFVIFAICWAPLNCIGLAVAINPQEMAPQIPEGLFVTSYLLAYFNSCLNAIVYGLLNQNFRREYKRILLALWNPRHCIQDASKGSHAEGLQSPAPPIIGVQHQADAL
# Description: as §1, §2
# human MT1 receptor [3] = target: T1, human MT1 receptor; details: relative to melatonin; cited from earlier work
# human MT2 receptor [4] = target: T2, human MT2 receptor; details: relative to melatonin; cited from earlier work
smiles,measurement,setting,value
"COc1cc2c([C@@H](C)CNC(C)=O)c[nH]c2cc1Cl [TIK-301, (R)-β-methyl-6-chloro-melatonin]",Ki,MT1,0.081 nM
same,Ki,MT2,0.042 nM
"CCC(=O)NC[C@H](CO)c1cccc2ccc(OC)cc12 [compound 1, (R)-N-[3-hydroxy-2-(7-methoxynaphthalen-1-yl)propyl]propanamide]",pKi(MT1),MT1,8.47
same,pKi(MT2),MT2,9.50
"COc1cccc(O[C@@H](C)CNC(C)=O)c1 [compound 2, (S)-N-[2-(3-methoxyphenoxy)propyl]acetamide]",pKi(MT1),MT1,8.77
same,pKi(MT2),MT2,8.33
"COc1cccc(N(C)CCNC(C)=O)c1 [compound 3, N-{2-[(3-methoxyphenyl)methylamino]ethyl}acetamide]",Ki,human MT1 receptor [1],1.74 nM
same,Ki,human MT2 receptor [2],2.24 nM
same,"hMT1 IA, relative intrinsic activity",human MT1 receptor [3],0.95 ^c
same,"hMT2 IA, relative intrinsic activity",human MT2 receptor [4],1.06 ^c
